This is an account of results in PubChem BioAssay (NCI).

Some test systems named below: MOLT-4 leukemia; RXF 393 renal; ACHN renal; LOX IMVI melanoma; NCI-H460 lung; SN12C renal; TK-10 renal; NCI-H226 lung; HCT-116 colon; HOP-62 NSCLC.
What all share (assay): DTP human tumour cell line panel, 48 h

Each structure is given as a SMILES string. “And” between values parts separate entries of the source, which are not always exact repeats. Equal values may be shown once.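 Five concentrations, 48 hours, 96-well plates. The concentration for 50% growth inhibition is given as GI50. Definition used: TGI = concentration required for complete inhibition of growth.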 A value given as a limit tells only on which side of the number the result lay.

As to `CC1(C)C(N2CCOCC2)CS1(=O)=O` (stereo not drawn), the concentration for total growth inhibition (TGI) in the assay on MOLT-4 leukemia, in the assay with RXF 393 renal, in the assay on ACHN renal, with LOX IMVI melanoma, in the assay with NCI-H460 lung and with SN12C renal was greater than 10 µM throughout. Further, the TGI in the assay with TK-10 renal, with NCI-H226 lung, with HCT-116 colon and with HOP-62 NSCLC was greater than 10 µM throughout.
Consider `Cc1cc(O)ccc1C1=NN(c2ccc(S(N)(=O)=O)cc2)C(=O)CC1`, for which the GI50 in the assay on MOLT-4 leukemia was 2.67 µM and 6.09 µM; in the assay with RXF 393 renal, 6.31 µM and 13.7 µM; in the assay on ACHN renal it was 19.3 µM and 38.3 µM; in the assay on LOX IMVI melanoma, 10.8 µM and 29.7 µM; in the assay with NCI-H460 lung, 2.19 µM and 6.16 µM; in the assay with SN12C renal, 6.68 µM and 42.6 µM. Further, the GI50 with TK-10 renal is > 50 µM and 15.9 µM; in the assay on NCI-H226 lung it was 10.9 µM and 94.5 µM; in the assay with HCT-116 colon, 3.5 µM and 7.27 µM; in the assay on HOP-62 NSCLC, 12.8 µM and 25 µM. The TGI in the assay with MOLT-4 leukemia is 50 µM and > 100 µM; in the assay with RXF 393 renal, 50 µM and 42.1 µM; with ACHN renal, 50 µM and > 100 µM; with LOX IMVI melanoma it was 50 µM and > 100 µM; with NCI-H460 lung, 50 µM and > 100 µM; with SN12C renal, 50 µM and > 100 µM. Also, the TGI with TK-10 renal was > 50 µM and 52.7 µM; in the assay on NCI-H226 lung, 50 µM and > 100 µM; in the assay with HCT-116 colon, 50 µM and > 100 µM; in the assay on HOP-62 NSCLC, 46 µM and 86.9 µM.
On to `CC1(C)c2ccccc2N2C(c3ccccc3)=NOC21C` (stereo not drawn), for which the total growth inhibition concentration (TGI) in the assay with MOLT-4 leukemia, in the assay on RXF 393 renal, in the assay with ACHN renal, in the assay on LOX IMVI melanoma, in the assay with NCI-H460 lung and in the assay on SN12C renal was greater than 100 µM throughout. Also, the TGI with TK-10 renal, in the assay with NCI-H226 lung, in the assay on HCT-116 colon and with HOP-62 NSCLC was greater than 100 µM throughout.
With `C=C1C(=O)O[C@H](c2ccoc2)C[C@@H]1[C@@]1(C)CCCC2(C)C(=O)OCC21` (stereo partly drawn), the TGI with MOLT-4 leukemia, in the assay on RXF 393 renal, in the assay with ACHN renal, in the assay on LOX IMVI melanoma, with NCI-H460 lung and with SN12C renal was greater than 100 µM throughout. The total growth inhibition concentration (TGI) in the assay on TK-10 renal, in the assay on NCI-H226 lung, with HCT-116 colon and with HOP-62 NSCLC was greater than 100 µM in each case.
As for `NC(=O)c1c(NC(=O)c2cccs2)sc2c1CCC(=O)C2`, the GI50 is 2.28 µM in the assay on MOLT-4 leukemia; 2.05 µM in the assay on RXF 393 renal; 2.16 µM in the assay on ACHN renal; 2.44 µM in the assay on LOX IMVI melanoma; 2.98 µM with NCI-H460 lung; 2.95 µM in the assay on SN12C renal. Further, the GI50 in the assay on TK-10 renal is 6.33 µM; in the assay with NCI-H226 lung it was 3.96 µM; with HCT-116 colon it was 1.7 µM; in the assay with HOP-62 NSCLC, 3.65 µM. Besides, the TGI is 16.1 µM with MOLT-4 leukemia; 8.49 µM with RXF 393 renal; 8.88 µM with ACHN renal; 14.2 µM in the assay with LOX IMVI melanoma; greater than 100 µM in the assay on NCI-H460 lung; greater than 100 µM with SN12C renal. The TGI in the assay with TK-10 renal is greater than 100 µM; with NCI-H226 lung, 48.3 µM; in the assay with HCT-116 colon, 13.7 µM; in the assay with HOP-62 NSCLC, greater than 100 µM.
As to `Nc1cccc2c1-c1c(cccc1[N+](=O)[O-])C2=O`, the TGI in the assay on MOLT-4 leukemia, in the assay on RXF 393 renal, with LOX IMVI melanoma, in the assay with NCI-H460 lung, in the assay on SN12C renal and in the assay on TK-10 renal was greater than 100 µM in each case. Moreover, the TGI in the assay with NCI-H226 lung, with HCT-116 colon and in the assay on HOP-62 NSCLC was greater than 100 µM each time.
For `Cc1ccccc1NC(=O)Cc1nc2ccccc2s1`, the TGI was 41.5 µM with MOLT-4 leukemia; 33 µM in the assay with RXF 393 renal; 29.7 µM in the assay with ACHN renal; 30.5 µM in the assay on LOX IMVI melanoma; 38.2 µM in the assay with NCI-H460 lung; 30.2 µM in the assay with SN12C renal. Further, the TGI came out at 41 µM in the assay with TK-10 renal, 34.9 µM in the assay on NCI-H226 lung and 31 µM in the assay on HCT-116 colon.
Turning to `CC(=Nc1ccc(N(C)C)cc1)c1ccccc1`, the TGI with MOLT-4 leukemia is 72.1 µM; with RXF 393 renal it was 20.6 µM; in the assay on ACHN renal, 77.1 µM; in the assay on NCI-H460 lung, greater than 100 µM; with SN12C renal, 32.1 µM; with TK-10 renal, 40.1 µM. Moreover, the TGI was greater than 100 µM in the assay on NCI-H226 lung, 30.6 µM with HCT-116 colon and greater than 100 µM with HOP-62 NSCLC.
For the compound `COc1cc2c(cc1OC)C(C(CCCCCC(CCC(C)C)C1NCCc3cc(OC)c(OC)cc31)CCC(C)C)NCC2` (stereo not drawn), the GI50 was 1.3 µM with RXF 393 renal; 1.68 µM with ACHN renal; 0.194 µM in the assay with LOX IMVI melanoma; 0.217 µM in the assay on NCI-H460 lung; 1.44 µM in the assay with SN12C renal; 1.76 µM with TK-10 renal. Besides, the GI50 in the assay on NCI-H226 lung is 1.79 µM; with HCT-116 colon, 0.199 µM; in the assay on HOP-62 NSCLC, 1.55 µM. Further, the TGI with RXF 393 renal turned out to be 2.75 µM; with ACHN renal, 3.17 µM; in the assay on LOX IMVI melanoma it was 0.408 µM; in the assay with NCI-H460 lung it was 0.436 µM; in the assay on SN12C renal, 2.87 µM; in the assay on TK-10 renal, 3.21 µM. In addition, the results for the TGI in the assay with NCI-H226 lung, in the assay with HCT-116 colon and with HOP-62 NSCLC were 3.6 µM, 0.388 µM and 3.11 µM, respectively.
As for `COc1cc(C(=O)/C=C/c2cc(-c3ccc4c(c3)OCO4)n[nH]2)cc(OC)c1OC`, the GI50 is 2.71 µM with MOLT-4 leukemia; 1.31 µM in the assay on RXF 393 renal; 2.2 µM with ACHN renal; 1.81 µM in the assay with NCI-H460 lung; 2.26 µM with SN12C renal; 2.9 µM in the assay on TK-10 renal. Further, the GI50 in the assay on NCI-H226 lung is 1.52 µM; in the assay on HCT-116 colon, 1.9 µM; in the assay on HOP-62 NSCLC it was 2.32 µM. Also, the TGI in the assay with MOLT-4 leukemia was found to be 8.36 µM; in the assay on RXF 393 renal it was 2.94 µM; in the assay on ACHN renal, 4.95 µM; with NCI-H460 lung it was 3.77 µM; in the assay on SN12C renal it was 6.28 µM; in the assay with TK-10 renal, 7.17 µM. The concentration for total growth inhibition (TGI) amounted to 4.25 µM in the assay on NCI-H226 lung, 4.63 µM with HCT-116 colon and 6.24 µM with HOP-62 NSCLC.

In general, TGI refers to the concentration giving total growth inhibition. As a reminder, the GI50 is the concentration giving 50% growth inhibition.
